The solubility is the dissolved amount per volume that the medium holds. A high value points to a readily soluble substance. As a reminder, the IC50 is the concentration that gives 50% inhibition.

The results in this text go back to ChEMBL document CHEMBL4665811, “Sila-Ibuprofen” (J Med Chem, 2020).

In brackets after ≈: the same amount, converted by molar mass.

The nature of data set [1]: Solubility in water by HPLC/UV analysis. It counts as physicochemical.
Data set [2] deals with C6. As to the kind of experiment: Toxicity in rat C6 cells assessed as effect on extracellular lactate dehydrogenase activity at 1000 uM incubated for 3 days by LDH release assay. It counts as cell-based. As to conditions: c6, 72 h, time 3 day. Background: LDH in the medium is a marker of cell lysis.
In data set [3] the test system is C6. As to the kind of experiment: Toxicity in rat C6 cells assessed as effect on cell proliferation at 300 uM incubated up to 3 days by LDH release assay. The data set is classed as cell-based. As to conditions: c6, 72 h, time <=3 day.
The subject of data set [4] is C6. As to the kind of experiment: Toxicity in rat C6 cells assessed as effect on cell morphology at 1000 uM incubated for 3 days. The data set is classed as cell-based. Conditions: c6, 72 h, time 3 day.
The subject of data set [5] is C6. Briefly: Toxicity in rat C6 cells assessed as effect on cellular viability at 1000 uM incubated up to 3 days by WST1 assay. Conditions: c6, 72 h, time <=3 day. It counts as cell-based.
The subject of data set [6] is C6. Briefly: Toxicity in rat C6 cells assessed as effect on cellular lactate production to 300 uM incubated for 72 hrs. It counts as cell-based. Conditions: c6, 72 h.
Data set [7] has as its target Prostaglandin G/H synthase 1 (Homo sapiens, UniProt P23219). As to the kind of experiment: Inhibition of human recombinant COX1 expressed in Sf9 cells using arachidonic acid and ADHP incubated for 3 mins by fluorimetry.
Data set [8] has as its target T1, Prostaglandin G/H synthase 2 (Homo sapiens, UniProt P35354).
T1 sequence (P35354 whole entry): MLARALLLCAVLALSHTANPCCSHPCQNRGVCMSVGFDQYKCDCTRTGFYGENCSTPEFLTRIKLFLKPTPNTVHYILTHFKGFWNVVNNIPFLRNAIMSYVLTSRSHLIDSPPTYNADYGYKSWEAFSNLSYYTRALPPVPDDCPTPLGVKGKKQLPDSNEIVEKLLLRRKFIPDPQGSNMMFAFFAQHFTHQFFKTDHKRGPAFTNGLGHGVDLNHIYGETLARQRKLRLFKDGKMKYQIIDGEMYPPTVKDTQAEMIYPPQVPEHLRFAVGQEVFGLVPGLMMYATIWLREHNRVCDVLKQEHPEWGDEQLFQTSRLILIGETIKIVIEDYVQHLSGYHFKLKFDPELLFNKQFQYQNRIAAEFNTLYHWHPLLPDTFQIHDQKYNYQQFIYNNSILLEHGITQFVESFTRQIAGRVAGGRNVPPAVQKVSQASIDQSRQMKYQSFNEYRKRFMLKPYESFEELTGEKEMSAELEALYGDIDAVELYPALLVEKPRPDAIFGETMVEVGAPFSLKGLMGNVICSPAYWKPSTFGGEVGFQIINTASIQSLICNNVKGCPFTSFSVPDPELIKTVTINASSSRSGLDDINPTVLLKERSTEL
Briefly: Inhibition of human recombinant COX2 expressed in Sf9 cells using arachidonic acid and ADHP incubated for 5 mins by fluorimetry.

Data set [9] concerns C6. Briefly: Toxicity in rat C6 cells assessed as effect on cellular protein per well up to 300 uM incubated for 72 hrs. The data set is classed as cell-based. As to conditions: c6, 72 h.
In data set [10] the test system is C6. As to the kind of experiment: Toxicity in rat C6 cells assessed as effect on cellular viability up to 300 uM incubated for 72 hrs by WST1 assay. It counts as cell-based. Conditions: c6, 72 h. In general terms: Tetrazolium dyes change colour on reduction, which living cells bring about.
In data set [11] the test system is C6. As to the kind of experiment: Toxicity in rat C6 cells assessed as effect on cell viability up to 300 uM incubated for 72 hrs by LDH release assay. The data set is classed as cell-based. Conditions: c6, 72 h.
For data set [12], the system named is C6. Briefly: Toxicity in rat C6 cells assessed as reduction in protein content at 1000 uM incubated up to 3 days. The data set is classed as cell-based. Conditions: c6, 72 h, time <= day.
Data set [13] concerns C6. As to the kind of experiment: Toxicity in rat C6 cells assessed as reduction in cell proliferation at 1000 uM incubated up to 3 days by LDH release assay. It counts as cell-based. Conditions: c6, 72 h, time <=3 day.

Prostaglandin G/H synthase 1, sequence (P23219 whole entry): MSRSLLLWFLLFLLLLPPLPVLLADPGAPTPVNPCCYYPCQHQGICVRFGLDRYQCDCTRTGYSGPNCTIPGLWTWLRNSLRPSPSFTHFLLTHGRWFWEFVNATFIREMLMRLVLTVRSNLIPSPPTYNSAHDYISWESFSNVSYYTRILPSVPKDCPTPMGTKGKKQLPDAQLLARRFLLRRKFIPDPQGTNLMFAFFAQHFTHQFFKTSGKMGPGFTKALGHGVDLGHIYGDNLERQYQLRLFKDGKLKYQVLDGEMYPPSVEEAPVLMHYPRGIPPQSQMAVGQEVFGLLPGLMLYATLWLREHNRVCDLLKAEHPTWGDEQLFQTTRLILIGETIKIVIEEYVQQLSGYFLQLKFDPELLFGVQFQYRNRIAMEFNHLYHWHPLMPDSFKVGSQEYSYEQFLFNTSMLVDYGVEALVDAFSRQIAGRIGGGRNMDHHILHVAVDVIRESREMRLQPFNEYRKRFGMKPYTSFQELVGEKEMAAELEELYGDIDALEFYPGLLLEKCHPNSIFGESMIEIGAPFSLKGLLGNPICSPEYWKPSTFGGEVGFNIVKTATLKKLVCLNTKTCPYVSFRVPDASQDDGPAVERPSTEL

`CC(C(=O)O)c1ccc(C[SiH](C)C)cc1` (stereo unspecified) displayed a solubility in data set [1] of 83 µg/mL (≈ 373 µM). Also, the Activity entry is on record as “Non-Toxic” in data set [2]; “Non-Toxic” in [3]; “Non-Toxic” in data set [4]; “Toxic” in [5]; “Non-Toxic” in data set [6]; “Non-Toxic” in data set [9]. The Activity result in [10] is reported as “Non-Toxic”; in data set [11] it was “Non-Toxic”; in data set [12] it was “Toxic”; in data set [13], “Toxic”. The figures for the half-maximal inhibitory concentration (IC50) in [7] and in data set [8] were 26 µM and 8.3 µM, respectively.

Consider `CC(C)Cc1ccc(C(C)C(=O)O)cc1` (stereo unspecified) [IBUPROFEN], for which the Activity entry in data set [2], in data set [3], in data set [4], in data set [6], in [9] and in data set [10] was “Non-Toxic” throughout. In addition, the Activity entry in data set [11] was “Non-Toxic”; in data set [13] it was “Toxic”.
